We go through 16 compounds from US20240360082A1, “SUBSTITUTED PYRIDONE COMPOUNDS USEFUL TO TREAT ORTH[…]” (priority 2021, published 2024).

Chain of influenza B virus minigenome (Hubei B) (P04665 whole entry): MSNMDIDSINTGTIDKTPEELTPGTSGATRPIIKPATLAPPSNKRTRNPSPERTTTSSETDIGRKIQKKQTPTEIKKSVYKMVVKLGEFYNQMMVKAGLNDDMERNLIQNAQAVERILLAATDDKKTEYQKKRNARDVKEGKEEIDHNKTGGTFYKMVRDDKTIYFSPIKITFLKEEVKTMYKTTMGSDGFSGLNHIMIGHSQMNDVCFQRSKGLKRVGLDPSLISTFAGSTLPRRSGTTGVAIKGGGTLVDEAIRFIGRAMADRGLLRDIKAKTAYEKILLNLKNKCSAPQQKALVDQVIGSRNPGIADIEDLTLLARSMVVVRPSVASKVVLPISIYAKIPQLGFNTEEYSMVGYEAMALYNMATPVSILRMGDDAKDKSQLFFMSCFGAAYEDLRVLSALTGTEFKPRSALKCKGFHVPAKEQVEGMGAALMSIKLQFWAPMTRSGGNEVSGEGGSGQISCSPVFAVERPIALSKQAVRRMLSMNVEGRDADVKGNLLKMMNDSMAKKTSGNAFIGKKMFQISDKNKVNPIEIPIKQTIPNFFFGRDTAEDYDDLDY

The target of the first test is influenza A virus minigenome (PB2, PB1, PA, NP proteins) (UniProt P04665). The class given is cell-based. The note with it: read-out: RNP_ Hubei B IC50.
Chain of influenza A virus minigenome (PB2, PB1, PA, NP proteins) (P04665 whole entry): as above
With `C[C@]1(COC(F)F)COC[C@@H](COc2ccc(-c3cc(C(N)=O)c(=O)[nH]c3C(F)(F)F)cc2)O1` [Example 425, 5-(4-(((2S,6R)-6-((difluoromethoxy)methyl)-6-methyl-1,4-dioxan-2-yl)methoxy)phenyl)-2-oxo-6-(trifluoromethyl)-1,2-dihydropyridine-3-carboxamide], the IC50 (as a rule, the midpoint of a concentration-inhibition curve) was 5 to 10 µM.
In the case of `COCC[C@@]1(C)COC[C@@H](COc2ccc(-c3cc(C(N)=O)c(=O)[nH]c3C(F)(F)F)cc2)O1` [Example 426, 5-(4-(((2S,6S)-6-(2-methoxyethyl)-6-methyl-1,4-dioxan-2-yl)methoxy)phenyl)-2-oxo-6-(trifluoromethyl)-1,2-dihydropyridine-3-carboxamide], the concentration for half-maximal inhibition (IC50) fell in the range of 5 to 10 µM.
For the compound `C[C@]1(COC2COC2)COC[C@@H](COc2ccc(-c3cc(C(N)=O)c(=O)[nH]c3C(F)(F)F)cc2)O1` [Example 427, 5-(4-(((2S,6R)-6-methyl-6-((oxetan-3-yloxy)methyl)-1,4-dioxan-2-yl)methoxy)phenyl)-2-oxo-6-(trifluoromethyl)-1,2-dihydropyridine-3-carboxamide], the half-maximal inhibitory concentration (IC50) is 5 to 10 µM.
`CCOC[C@@]1(C)COC[C@@H](COc2ccc(-c3cc(C(N)=O)c(=O)[nH]c3C(F)(F)F)cc2)O1` [Example 428, 5-(4-(((2S,6S)-6-(ethoxymethyl)-6-methyl-1,4-dioxan-2-yl)methoxy)phenyl)-2-oxo-6-(trifluoromethyl)-1,2-dihydropyridine-3-carboxamide]: the IC50 fell in the range of 5 to 10 µM.
On to `CC1(OC[C@@]2(C)COC[C@@H](COc3ccc(-c4cc(C(N)=O)c(=O)[nH]c4C(F)(F)F)cc3)O2)COC1` [Example 429], for which the IC50 fell in the range of 5 to 10 µM.
Consider `COCCOC[C@@]1(C)COC[C@@H](COc2ccc(-c3cc(C(N)=O)c(=O)[nH]c3C(F)(F)F)cc2)O1` [Example 430, 5-(4-(((2S,6S)-6-((2-methoxyethoxy)methyl)-6-methyl-1,4-dioxan-2-yl)methoxy)phenyl)-2-oxo-6-(trifluoromethyl)-1,2-dihydropyridine-3-carboxamide], for which the half-inhibitory concentration (IC50) was in the range of 5 to 10 µM.
Regarding `C[C@]1(COCC(F)F)COC[C@@H](COc2ccc(-c3cc(C(N)=O)c(=O)[nH]c3C(F)(F)F)cc2)O1` [Example 431, 5-(4-(((2S,6R)-6-((2,2-difluoroethoxy)methyl)-6-methyl-1,4-dioxan-2-yl)methoxy)phenyl)-2-oxo-6-(trifluoromethyl)-1,2-dihydropyridine-3-carboxamide], the concentration for half-maximal inhibition (IC50) lay within 5 to 10 µM.
Turning to `C[C@]1(COCC(F)(F)F)COC[C@@H](COc2ccc(-c3cc(C(N)=O)c(=O)[nH]c3C(F)(F)F)cc2)O1` [Example 432, 5-(4-(((2S,6R)-6-methyl-6-((2,2,2-trifluoroethoxy)methyl)-1,4-dioxan-2-yl)methoxy)phenyl)-2-oxo-6-(trifluoromethyl)-1,2-dihydropyridine-3-carboxamide], the 50% inhibitory concentration (IC50) was 5 to 10 µM.
In the case of `C[C@]1(CO)COC[C@@H](COc2ccc(-c3cc(C(N)=O)c(=O)[nH]c3C(F)(F)F)cc2)O1` [Example 433, 5-(4-(((2S,6S)-6-(hydroxymethyl)-6-methyl-1,4-dioxan-2-yl)methoxy)phenyl)-2-oxo-6-(trifluoromethyl)-1,2-dihydropyridine-3-carboxamide], the IC50 was 5 to 10 µM.
In the case of `C[C@]1(CC(F)F)COC[C@@H](COc2ccc(-c3cc(C(N)=O)c(=O)[nH]c3C(F)(F)F)cc2)O1` [Example 434, 5-(4-(((2S,6S)-6-(2,2-difluoroethyl)-6-methyl-1,4-dioxan-2-yl)methoxy)phenyl)-2-oxo-6-(trifluoromethyl)-1,2-dihydropyridine-3-carboxamide], the IC50 fell in the range of 5 to 10 µM.
For `C[C@]1(CCF)COC[C@@H](COc2ccc(-c3cc(C(N)=O)c(=O)[nH]c3C(F)(F)F)cc2)O1` [Example 435, 5-(4-(((2S,6S)-6-(2-fluoroethyl)-6-methyl-1,4-dioxan-2-yl)methoxy)phenyl)-2-oxo-6-(trifluoromethyl)-1,2-dihydropyridine-3-carboxamide], the 50% inhibitory concentration (IC50) is 5 to 10 µM.

A further test addresses influenza B virus minigenome (Hubei B) (UniProt P04665). The class given is cell-based. The settings on record: read-out: RNP_Hubei B IC50.
`C[C@]1(COCCF)COC[C@@H](COc2ccc(-c3cc(C(N)=O)c(=O)[nH]c3C(F)(F)F)cc2)O1` [Example 436, 5-(4-(((2S,6R)-6-((2-fluoroethoxy)methyl)-6-methyl-1,4-dioxan-2-yl)methoxy)phenyl)-2-oxo-6-(trifluoromethyl)-1,2-dihydropyridine-3-carboxamide]: the IC50 lay within 5 to 10 µM.
Consider `C[C@@]1(C2CC2)COC[C@@H](COc2ccc(-c3cc(C(N)=O)c(=O)[nH]c3C(F)(F)F)cc2)O1` [Example 437, 5-(4-(((2S,6R)-6-cyclopropyl-6-methyl-1,4-dioxan-2-yl)methoxy)phenyl)-2-oxo-6-(trifluoromethyl)-1,2-dihydropyridine-3-carboxamide], for which the IC50 was 5 to 10 µM.
Regarding `COC[C@]1(C2CC2)COC[C@@H](COc2ccc(-c3cc(C(N)=O)c(=O)[nH]c3C(F)(F)F)cc2)O1` [Example 438, 5-(4-(((2S,6R)-6-cyclopropyl-6-(methoxymethyl)-1,4-dioxan-2-yl)methoxy)phenyl)-2-oxo-6-(trifluoromethyl)-1,2-dihydropyridine-3-carboxamide], the half-inhibitory concentration (IC50) is 5 to 10 µM.
On to `COC[C@@]1(C2CC2)COC[C@@H](COc2ccc(-c3cc(C(N)=O)c(=O)[nH]c3C(F)(F)F)cc2)O1` [Example 439, 5-(4-(((2S,6S)-6-cyclopropyl-6-(methoxymethyl)-1,4-dioxan-2-yl)methoxy)phenyl)-2-oxo-6-(trifluoromethyl)-1,2-dihydropyridine-3-carboxamide], for which the IC50 is 5 to 10 µM.
Still for that read-out and setting: under `NC(=O)c1cc(-c2ccc(OC[C@@H]3COC[C@]4(CCOC4)O3)cc2)c(C(F)(F)F)[nH]c1=O` [Example 440, 5-(4-(((5R,7S)-2,6,9-trioxaspiro[4.5]decan-7-yl)methoxy)phenyl)-2-oxo-6-(trifluoromethyl)-1,2-dihydropyridine-3-carboxamide] stands 5 to 10 µM.
